Laboratory results as given in patent publication US20150148235A1, “HERBICIDE-RESISTANT SUNFLOWER PLANTS WITH MULTIPLE HERBICIDE RESISTANT ALLELES OF AHASL1 AND METHODS OF USE” (NIDERA S.A., priority 2013, published 2015).

How the values were obtained:
[1] = tested on: AHAS enzyme, A122T Homozygous sunflower; test: AHAS enzyme activity assay, leaf extract; assay type: biochemical, Helianthus annuus
Procedure: (§1) Twelve greenhouse grown sunflower plants from each of the lines depicted in Table 21 were bulked and subjected to an AHAS enzyme activity assay via the method of Singh et al. (1988) Anal. Biochem. 171:173-179. Each activity assay was repeated twice. Due to the large number of samples, the experiment was split into two sets (Table 21).
(§2) Young, actively growing leaves, from four week old plantlets, were ground in a mortar and pestle with liquid N2 and extracted with a buffer composed of 100 mM Pyruvate, 200 mM KH2PO4, 20 mM MgCl2, 2 mM thiamine pyrophosphate and […]. Plant extracts were then spun through a 10 mL Zeba TM desalt spin column (Pierce #89893) as per the manufacturer's recommendation. The inhibition assay was performed as described by Singh et al. (1988) Anal. Biochem. 171:173-179. Assays were conducted in a 96-well format. Fifty μl of inhibitor was added to each well containing 50 μl of soluble protein extract to give final concentrations of 0.78, 1.56, 3.125, 6.25, 12.5, 25, 50 and 100 μM imazamox or 0.78, 1.56, 3.125, 6.25, 12.5, 25, 50 and 100 μM imazapyr. Zero herbicide controls were also included for each line. Reactions were processed as outlined by Singh et al. (1988) Anal. Biochem. 171:173-179. Absorbance was measured at 530 nm. AHAS activity, expressed as the mean of the absorbance values for each treatment, was presented as a percentage of the mean of the zero-herbicide controls.

[2] = tested on: AHAS enzyme, A122T/A205V Heterozygous sunflower; test: AHAS enzyme activity assay, leaf extract; assay type: biochemical, Helianthus annuus; settings: A122T/A205V heterozygous hybrid (Set 1); 100 μM
Procedure: as §1, §2

[3] = tested on: AHAS enzyme, A205V Homozygous sunflower; test: AHAS enzyme activity assay, leaf extract; assay type: biochemical, Helianthus annuus
Procedure: as §1, §2

[4] = tested on: sunflower hybrids and lines (A122T, A205V, A205V/A122T); test: Field trial North Dakota 2006, phytotoxicity ratings after imazamox or imazapyr, Example 3; assay type: in vivo, Helianthus annuus
Procedure: • Spray volume: 10 gallons per acre (GPA) (or 100 liters/ha) for backpack sprayer or 20 GPA (or 200 liters/ha) for tractor mounted boom • Growth Stage at Herbicide Application: 2-4 leaves
Entry 15 (WT Maintainer line) was left unsprayed in all treatment blocks.
Phytotoxicity ratings were assessed at 7 and 21 days following herbicide application.
The data was subjected to an ANOVA analysis and the means from the 3 repetitions are presented in Table 7 (phytotoxicity at 7 days post-treatment) and Table 8 (phytotoxicity at 21 days post-treatment).

COCc1cnc(C2=NC(C)(C(C)C)C(=O)N2)c(C(=O)O)c1 (centres unmarked) [imazamox]
AHAS activity ([1]; A122T homozygous (Set 2), 50 μM): 63 % relative to the untreated co
AHAS activity ([1]; A122T homozygous (Set 2), 100 μM): 60 % relative to the untreated co
AHAS activity ([1]; A122T homozygous hybrid (Set 1), 100 μM): 69 % of untreated control
AHAS activity [2]: 59%
AHAS activity ([3]; A205V homozygous (Set 2), 50 μM): 30%
AHAS activity ([3]; A205V homozygous (Set 2), 100 μM): 26%
AHAS activity ([3]; A205V homozygous hybrid (Set 1), 100 μM): 36 % of untreated control
Phytotoxicity Rating (% Crop Injury) ([4]; 1-hybrid (WT × IMI restorer, A205 hetero), 50 g ai/ha + 0.25% NIS, 7 DAT): 8.3%
Phytotoxicity Rating (% Crop Injury) ([4]; 1-hybrid (WT × IMI restorer, A205 hetero), 50 g ai/ha + 0.25% NIS, 21 DAT): 6.7%
Phytotoxicity Rating (% Crop Injury) ([4]; 1-hybrid (WT × IMI restorer, A205 hetero), 100 g ai/ha + 0.25% NIS, 7 DAT): 35.0%
Phytotoxicity Rating (% Crop Injury) ([4]; 1-hybrid (WT × IMI restorer, A205 hetero), 100 g ai/ha + 0.25% NIS, 21 DAT): 25.0%
Phytotoxicity Rating (% Crop Injury) ([4]; 1-hybrid (WT × IMI restorer, A205 hetero), 200 g ai/ha + 0.25% NIS, 7 DAT): 48.3%
Phytotoxicity Rating (% Crop Injury) ([4]; 1-hybrid (WT × IMI restorer, A205 hetero), 200 g ai/ha + 0.25% NIS, 21 DAT): 73.3%
Phytotoxicity Rating (% Crop Injury) ([4]; 3-hybrid (WT × IMI restorer, A205 hetero), 50 g ai/ha + 0.25% NIS, 7 DAT): 11.7%
Phytotoxicity Rating (% Crop Injury) ([4]; 3-hybrid (WT × IMI restorer, A205 hetero), 50 g ai/ha + 0.25% NIS, 21 DAT): 11.7%
Phytotoxicity Rating (% Crop Injury) ([4]; 3-hybrid (WT × IMI restorer, A205 hetero), 100 g ai/ha + 0.25% NIS, 7 DAT): 46.7%
Phytotoxicity Rating (% Crop Injury) ([4]; 3-hybrid (WT × IMI restorer, A205 hetero), 100 g ai/ha + 0.25% NIS, 21 DAT): 46.7%
Phytotoxicity Rating (% Crop Injury) ([4]; 3-hybrid (WT × IMI restorer, A205 hetero), 200 g ai/ha + 0.25% NIS, 7 DAT): 60.0%
Phytotoxicity Rating (% Crop Injury) ([4]; 3-hybrid (WT × IMI restorer, A205 hetero), 200 g ai/ha + 0.25% NIS, 21 DAT): 76.7%
Phytotoxicity Rating (% Crop Injury) ([4]; 4-line (IMI Restorer, A205 homo), 50 g ai/ha + 0.25% NIS, 7 DAT): 6.7%
Phytotoxicity Rating (% Crop Injury) ([4]; 4-line (IMI Restorer, A205 homo), 50 g ai/ha + 0.25% NIS, 21 DAT): 5.0%
Phytotoxicity Rating (% Crop Injury) ([4]; 4-line (IMI Restorer, A205 homo), 100 g ai/ha + 0.25% NIS, 7 DAT): 6.7%
Phytotoxicity Rating (% Crop Injury) ([4]; 4-line (IMI Restorer, A205 homo), 100 g ai/ha + 0.25% NIS, 21 DAT): 6.7%
Phytotoxicity Rating (% Crop Injury) ([4]; 4-line (IMI Restorer, A205 homo), 200 g ai/ha + 0.25% NIS, 7 DAT): 18.3%
Phytotoxicity Rating (% Crop Injury) ([4]; 4-line (IMI Restorer, A205 homo), 200 g ai/ha + 0.25% NIS, 21 DAT): 15.0%
Phytotoxicity Rating (% Crop Injury) ([4]; 6-hybrid (IMI CMS × IMI restorer, A205 homo), 50 g ai/ha + 0.25% NIS, 7 DAT): 5.0%
Phytotoxicity Rating (% Crop Injury) ([4]; 6-hybrid (IMI CMS × IMI restorer, A205 homo), 50 g ai/ha + 0.25% NIS, 21 DAT): 0.0%
Phytotoxicity Rating (% Crop Injury) ([4]; 6-hybrid (IMI CMS × IMI restorer, A205 homo), 100 g ai/ha + 0.25% NIS, 7 DAT): 8.3%
Phytotoxicity Rating (% Crop Injury) ([4]; 6-hybrid (IMI CMS × IMI restorer, A205 homo), 100 g ai/ha + 0.25% NIS, 21 DAT): 3.3%
Phytotoxicity Rating (% Crop Injury) ([4]; 6-hybrid (IMI CMS × IMI restorer, A205 homo), 200 g ai/ha + 0.25% NIS, 7 DAT): 26.7%
Phytotoxicity Rating (% Crop Injury) ([4]; 6-hybrid (IMI CMS × IMI restorer, A205 homo), 200 g ai/ha + 0.25% NIS, 21 DAT): 21.7%
Phytotoxicity Rating (% Crop Injury) ([4]; 7-hybrid (WT-CMS × IMI restorer, A205 hetero), 50 g ai/ha + 0.25% NIS, 7 DAT): 13.3%
Phytotoxicity Rating (% Crop Injury) ([4]; 7-hybrid (WT-CMS × IMI restorer, A205 hetero), 50 g ai/ha + 0.25% NIS, 21 DAT): 3.3%
Phytotoxicity Rating (% Crop Injury) ([4]; 7-hybrid (WT-CMS × IMI restorer, A205 hetero), 100 g ai/ha + 0.25% NIS, 7 DAT): 43.3%
Phytotoxicity Rating (% Crop Injury) ([4]; 7-hybrid (WT-CMS × IMI restorer, A205 hetero), 100 g ai/ha + 0.25% NIS, 21 DAT): 40.0%
Phytotoxicity Rating (% Crop Injury) ([4]; 7-hybrid (WT-CMS × IMI restorer, A205 hetero), 200 g ai/ha + 0.25% NIS, 7 DAT): 56.7%
Phytotoxicity Rating (% Crop Injury) ([4]; 7-hybrid (WT-CMS × IMI restorer, A205 hetero), 200 g ai/ha + 0.25% NIS, 21 DAT): 78.3%
Phytotoxicity Rating (% Crop Injury) ([4]; 8-hybrid (WT × GM40 restorer, A122 hetero), 50 g ai/ha + 0.25% NIS, 7 DAT): 13.3%
Phytotoxicity Rating (% Crop Injury) ([4]; 8-hybrid (WT × GM40 restorer, A122 hetero), 50 g ai/ha + 0.25% NIS, 21 DAT): 6.7%
Phytotoxicity Rating (% Crop Injury) ([4]; 8-hybrid (WT × GM40 restorer, A122 hetero), 100 g ai/ha + 0.25% NIS, 7 DAT): 13.3%
Phytotoxicity Rating (% Crop Injury) ([4]; 8-hybrid (WT × GM40 restorer, A122 hetero), 100 g ai/ha + 0.25% NIS, 21 DAT): 11.7%
Phytotoxicity Rating (% Crop Injury) ([4]; 8-hybrid (WT × GM40 restorer, A122 hetero), 200 g ai/ha + 0.25% NIS, 7 DAT): 25.0%
Phytotoxicity Rating (% Crop Injury) ([4]; 8-hybrid (WT × GM40 restorer, A122 hetero), 200 g ai/ha + 0.25% NIS, 21 DAT): 28.3%
Phytotoxicity Rating (% Crop Injury) ([4]; 9-line (GM40 restorer, A122 homo), 50 g ai/ha + 0.25% NIS, 7 DAT): 1.7%
Phytotoxicity Rating (% Crop Injury) ([4]; 9-line (GM40 restorer, A122 homo), 50 g ai/ha + 0.25% NIS, 21 DAT): 0.0%
Phytotoxicity Rating (% Crop Injury) ([4]; 9-line (GM40 restorer, A122 homo), 100 g ai/ha + 0.25% NIS, 7 DAT): 5.0%
Phytotoxicity Rating (% Crop Injury) ([4]; 9-line (GM40 restorer, A122 homo), 100 g ai/ha + 0.25% NIS, 21 DAT): 0.0%
